For data set [1] the following is noted: ILC; for adsorbed amount of surfactant on the membrane: surfactant concentration 0.1 g/L.
The nature of data set [2]: Evaluation of wettability by filtration with activated carbon. The following applies: membrane filters impregnated with 0.1 wt % surfactant; white spots indicate inhomogeneous wetting. Type of data set: physicochemical. The protocol:
The wetting ability of membrane filters obtained in Example 1, which were impregnated with 0.1 wt % of each of Tween 80, Triton X100, Brij 35, SDS, and SDBS, was evaluated after filtration with activated carbon. For this purpose, the pieces with a diameter of 4.7 cm were placed with the application side of the membrane pointing upwards on a frit of a filtration unit before cups are attached thereon. All valves of the filtration bar are closed. 0.2 g of activated carbon is suspended in 1 L of RO water and 100 ml of filtration volume is measured after vigorous stirring and filled into the filtration cups. The pump is then switched on and the valves are opened. After filtration, the black filter pieces are placed on a white sheet of paper and photographed. White spots indicate an inhomogeneous wetting pattern (FIG. 1).

The next data set relates to L. anisa WDCM 00106. Type of data set: cell-based, Legionella anisa.

Take “4-(1,1,3,3-tetramethylbutyl)-phenyl-polyethylene glycol [Triton X-100]”: the “adsorbed amount of surfactant on the membrane” value in data set [1] is reported as 51.5 μg/cm^2. In data set [1] (surfactant concentration 1.0 g/L), the “adsorbed amount relative to SDBS” value is recorded as “two times higher compared to SDBS”.
As to “polyoxyethylene(x)-sorbitan monooleate (x=80) [Tween 80]”, the “wetting pattern after filtration with activated carbon” value in data set [2] is listed as “white wetting spots were visible”.
Turning to sodium dodecyl benzyl sulfonate [SDBS], the “colony forming units of L. anisa” value in the data set on L. anisa WDCM 00106 is listed as “sharp decrease in colony forming units”. The “adsorbed amount of surfactant on the membrane” value in data set [1] amounted to 8.73 μg/cm^2.

The values above are taken from patent US20250011829A1, “MEMBRANE FOR MICROBIOLOGICAL ANALYSIS” (Sartorius Stedim Biotech GmbH, priority 2021, published 2025).
